Results from patent US12473250B2, “Molecular design of new antibiotics and antibiotic adjuvants against MCR strains” (priority 2019, dated 2025).
Like-named read-outs stand apart in the source and are kept apart here.

How the values were obtained:
Assay type in all cases: cell-based
[1] = tested on: colistin resistant MCR (+) E. Coli strains; experiment: MIC, broth microdilution, compound alone; settings: compound alone
Procedure, shortened: (§1)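 Modified CLSI broth microdilution; inoculum from 18–20 h TSA colonies adjusted to 0.5 McFarland, ~5×10^5 CFU/mL per well. Plates incubated 24 h at 35 °C; turbidity may be read at OD600. MIC defined as concentration giving 99% inhibition.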

[2] = tested on: colistin resistant MCR (−) E. Cloacae strain 7023456439; experiment: MIC, broth microdilution, compound alone; settings: strain 7023456439 E. Cloacae
Procedure, shortened: as §1

[3] = tested on: colistin resistant MCR (−) E. Coli strains; experiment: MIC, broth microdilution, compound alone
Procedure, shortened: as §1

[4] = tested on: colistin resistant MCR (+) E. Coli strains; experiment: Synergy study: colistin MIC in the presence of compound
Procedure, shortened: (§2)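 CLSI broth microdilution with colistin and LC compound added in equal amounts, 2-fold serial dilution, alone or combined at fixed synergy concentration. MIC taken as lowest concentration with no visible growth after 24 hours of incubation.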

[5] = tested on: colistin resistant MCR (−) E. Cloacae strain 7023456439; experiment: as above; settings: strain 7023456439 E. Cloacae
Procedure, shortened: as §2

[6] = tested on: colistin resistant MCR (−) E. Coli strains; experiment: as above
Procedure, shortened: as §2

O=C(O)CN(CCN(CC(=O)O)CC(=O)O)CC(=O)O [EDTA, Ethylenediaminetetraacetic acid, reference compound] was tested, and the MIC ([1]; Escherichia coli, strain 6075066346, MCR (+), read-out: MIC) was over 250 µg/mL, the MIC ([1]; strain 6083655967, MCR (+)) was over 250 µg/mL and the MIC ([1]; strain 6103645107, MCR (+)) was over 250 µg/mL. For the same compound, the MIC ([1]; strain 6123520276, MCR (+)) was over 250 µg/mL, the MIC ([1]; strain 7013177695, MCR (+)) was over 250 µg/mL and the MIC ([1]; strain 7023436560, MCR (+)) was over 250 µg/mL. The MIC ([1]; strain 7023444207, MCR (+)) was over 250 µg/mL, the MIC ([2]; Enterobacter cloacae, read-out: MIC) was over 250 µg/mL and the MIC ([3]; Escherichia coli, strain 7023446108, MCR (−), read-out: MIC) was over 250 µg/mL. For the same compound, the MIC ([3]; strain 6083672926, MCR (−)) was over 250 µg/mL, the MIC ([3]; strain 7033607097, MCR (−)) was over 250 µg/mL and the “concentration at which the compound shows synergy with colistin” value ([4]; against mcr-1 bacteria) was “higher than 250 μg/ml”. For the same compound, the “Colistin MIC in the presence of the compound” value (“Colistin MIC in the presence” below) ([4]; strain 6083655967, MCR(+), compound at 250 ug/ml) was 0.78 µg/mL, the “Colistin MIC in the presence” value ([4]; strain 6103645107, MCR(+), compound at 250 ug/ml) was 0.39 µg/mL and the “Colistin MIC in the presence” value ([4]; strain 6123520276, MCR(+), compound at 250 ug/ml) was 0.78 µg/mL. For the same compound, the “Colistin MIC in the presence” value ([4]; strain 7013177695, MCR(+), compound at 250 ug/ml) was 0.78 µg/mL, the “Colistin MIC in the presence” value ([4]; strain 7023436560, MCR(+), compound at 250 ug/ml) was 0.39 µg/mL and the “Colistin MIC in the presence” value ([5]; compound at 250 ug/ml) was 3.125 µg/mL. The “Colistin MIC in the presence” value ([6]; strain 6083672926, MCR(−), compound at 250 ug/ml) was 0.78 µg/mL, the “Colistin MIC in the presence” value ([6]; strain 7023446108, MCR(−), compound at 250 ug/ml) was 0.39 µg/mL and the “Colistin MIC in the presence” value ([6]; strain 7033607097, MCR(−), compound at 250 ug/ml) was 0.195 µg/mL.
Work on CC1(C)C=Cc2c(ccc3c2OCC(c2ccc(OCCCC[n+]4ccccc4)cc2OCCCC[n+]2ccccc2)C3)O1 (centres unmarked) [LC370] yielded an MIC ([1]; strain 6075066346, MCR (+)) of 50 µg/mL, an MIC ([1]; strain 6083655967, MCR (+)) of 50 µg/mL and an MIC ([1]; strain 6103645107, MCR (+)) of 50 µg/mL. It also gave an MIC ([1]; strain 6123520276, MCR (+)) of 50 µg/mL, an MIC ([1]; strain 7013177695, MCR (+)) of 50 µg/mL and an MIC ([1]; strain 7023436560, MCR (+)) of 50 µg/mL. The MIC ([1]; strain 7023444207, MCR (+)) was 50 µg/mL, the MIC [2] was over 50 µg/mL and the MIC ([3]; strain 6083672926, MCR (−)) was 25 µg/mL. The MIC ([3]; strain 7023446108, MCR (−)) was 25 µg/mL, the MIC ([3]; strain 7033607097, MCR (−)) was 25 µg/mL and the “Colistin MIC in the presence” value ([4]; strain 6075066346, MCR(+), compound at 10 μg (Table 2a: 10 ug/ml)) was 0.195 µg/mL. The “Colistin MIC in the presence” value ([4]; strain 6083655967, MCR(+), compound at 10 μg (Table 2a: 10 ug/ml)) was 0.39 µg/mL, the “Colistin MIC in the presence” value ([4]; strain 6103645107, MCR(+), compound at 10 μg (Table 2a: 10 ug/ml)) was 0.195 µg/mL and the “Colistin MIC in the presence” value ([4]; strain 6123520276, MCR(+), compound at 10 μg (Table 2a: 10 ug/ml)) was 0.195 µg/mL. For the same compound, the “Colistin MIC in the presence” value ([4]; strain 7013177695, MCR(+), compound at 10 μg (Table 2a: 10 ug/ml)) was 0.195 µg/mL, the “Colistin MIC in the presence” value ([4]; strain 7023436560, MCR(+), compound at 10 μg (Table 2a: 10 ug/ml)) was 0.195 µg/mL and the “Colistin MIC in the presence” value ([4]; strain 7023444207, MCR(+), compound at 10 μg (Table 2a: 10 ug/ml)) was 0.195 µg/mL. The “Colistin MIC in the presence” value ([5]; compound at 10 μg (Table 2a: 10 ug/ml)) was over 12.5 µg/mL, the “Colistin MIC in the presence” value ([6]; strain 6083672926, MCR(−), compound at 10 μg (Table 2a: 10 ug/ml)) was over 12.5 µg/mL and the “Colistin MIC in the presence” value ([6]; strain 7023446108, MCR(−), compound at 10 μg (Table 2a: 10 ug/ml)) was 0.195 µg/mL. The “Colistin MIC in the presence” value ([6]; strain 7033607097, MCR(−), compound at 10 μg (Table 2a: 10 ug/ml)) was 0.195 µg/mL.
For CC(C)=CCc1c(OCCCC[n+]2ccccc2)ccc(C(=O)/C=C/c2ccc(OCCCC[n+]3ccccc3)cc2)c1O [LC365], the MIC ([1]; strain 6075066346, MCR (+)) was 3.125 µg/mL, the MIC ([1]; strain 6083655967, MCR (+)) was 3.125 µg/mL and the MIC ([1]; strain 6103645107, MCR (+)) was 3.125 µg/mL. It also gave an MIC ([1]; strain 6123520276, MCR (+)) of 3.125 µg/mL, an MIC ([1]; strain 7013177695, MCR (+)) of 3.125 µg/mL and an MIC ([1]; strain 7023436560, MCR (+)) of 3.125 µg/mL. For the same compound, the MIC ([1]; strain 7023444207, MCR (+)) was 3.125 µg/mL, the MIC [2] was over 50 µg/mL and the MIC ([3]; strain 6083672926, MCR (−)) was 3.125 µg/mL. The MIC ([3]; strain 7023446108, MCR (−)) was 3.125 µg/mL, the MIC ([3]; strain 7033607097, MCR (−)) was 3.125 µg/mL and the “Colistin MIC in the presence” value ([4]; strain 6083655967, MCR(+), compound at 2 μg) was 0.39 µg/mL. For the same compound, the “Colistin MIC in the presence” value ([4]; strain 6103645107, MCR(+), compound at 2 μg) was 0.39 µg/mL, the “Colistin MIC in the presence” value ([4]; strain 6123520276, MCR(+), compound at 2 μg) was 0.39 µg/mL and the “Colistin MIC in the presence” value ([4]; strain 7023444207, MCR(+), compound at 2 μg) was 0.39 µg/mL. For the same compound, the “Colistin MIC in the presence” value ([5]; compound at 2 μg) was over 12.5 µg/mL, the “Colistin MIC in the presence” value ([6]; strain 6083672926, MCR(−), compound at 2 μg) was 0.195 µg/mL and the “Colistin MIC in the presence” value ([6]; strain 7023446108, MCR(−), compound at 2 μg) was 0.195 µg/mL. The “Colistin MIC in the presence” value ([6]; strain 7033607097, MCR(−), compound at 2 μg) was 0.195 µg/mL.
